Here are results for two compounds from US20090075972A1, “Use of Midostaurin for Treating Gastrointestinal Stromal Tumors” (priority 2004, published 2009).

Where two headings read alike, the source gives them in different places.

One data set addresses T1, PDGFRA D842V (Homo sapiens, UniProt P16234, D842V).
T1 construct: expressed in transfected cells; host or cells: Ba/F3 murine cells, retroviral transduction with pMSCV-puro
Kind of data set: Dose response curves of Ba/F3 cells expressing mutant kinase (viable cells after 24 hrs). The class given is cell-based. On the procedure: (§1) Construct: Mutant PDGFRA and KIT cDNA are obtained by RT-PCR on RNA isolated from progressive tumors. The cDNA's are cloned into the retroviral vector pMSCV-puro (Clontech).
(§2) Cell culture: 293T cells are grown in DMEM supplemented with 10% FCS. Ba/F3 cells are grown in RPMI-1640 supplemented with 10% FCS and interleukin-3 (1 ng/ml). Virus as produced as described previously, see e.g. Cools J. et al., N Engl J Med 2003; 348:1201-1214.
(§3) .Ba/F3 cells transduced with the different constructs are selected with puromycin (2 μg/ml). To test for factor independent growth, Ba/F3 cells are washed 3 times in PBS and new cultures are initiated in the absence of interleukin-3. Cells that became independent on interleukin-3, are maintained in the absence of interleukin-3. For dose-response curves, Ba/F3 cells are grown in 24-well plates with different concentrations of inhibitor. The number of viable cells is determined at the start and after 24 hrs, using the AqueousOne solution (Promega).
(§4) Ba/F3 cells are IL3 dependent for their growth, but become IL3 independent upon the expression of many activated kinases, such as FIP1 L1-PDGFRA and BCR-ABL. […] The PDGFRA ΔDIM842-844 mutant serve as a control in this experiment.

In a further data set the target is T2, PDGFRA ΔDIM842-844 (Homo sapiens, UniProt P16234, DEL842-844).
T2 construct: expressed in transfected cells; host or cells: Ba/F3 murine cells, retroviral transduction with pMSCV-puro
The description is as above. The data set is classed as cell-based. On the procedure:
as §1, §2, §3, §4

For data set [1] the following is noted: human trials; cited from earlier work.
Data set [2] relates to T674 I mutant form of FIPL1-PDGFRA. The note with it: refractory CEL patients; Cools J. et al., Cancer Cell 2003; cited from earlier work.
Data set [3] deals with T3, KITΔ557-558/T670I (Homo sapiens, UniProt P10721, DEL557-558/T670I). The note with it: 90 min, KITΔ557-558/T670I cells. On the procedure:
(§5) Western-blot: Snap-frozen tumor specimens sufficient for preparation of cell lysates were available from ten refractory GISTs. Cell lysis, SDS-PAGE and immunoblotting were carried out as described.^21 Membranes (Amnersham Pharmacia Biotechnology, UK) were immunoblotted overnight using anti-phospho-KIT (Y703) (Zymed, San Francisco, Calif.) antibody at dilution of 1:500. The HRP-conjugated anti-rabbit IgG was used at a dilution of 1:2500 and visualized with Enhanced Chemiluminescence (Pierce). Membranes were then stripped and re-blotted to determine total protein levels using an antibody recognizing total KIT protein (anti-CD117, A4502, DAKO, Glostrup, Denmark).
(§6) Experiments are performed with serial dilutions of the 10 mM stock. Controls are performed with solvent (DMSO) dilutions. Primary cells are obtained from collagenase disaggregated progressive tumor specimens, seeded at 60-70% confluence in 100-mm cell culture dishes (Corning Inc., Corning, N.Y.) and grown for three days in DMEM supplemented with 10% fetal bovine serum, 0.1 mM nonessential amino acids, and 1.0 mM sodium pyruvate.
(§7) The results are compared with GIST882 cells, which carry a hemizygous KIT K642E mutation. Observations are standardized for total KIT expression using anti-KIT antibody.

Another data set addresses KITInsAY502-503/V654A (Homo sapiens, UniProt P10721, INS503AY/V654A). As to conditions: KITIns503AY/V654A cells. On the procedure: as §5, §6, §7
The target of data set [4] is T3, KITΔ557-558/T670I. The note with it: Ba/F3 cells. On the procedure:
as §1, §2, §3, §4

The subject of a further data set is GISTs. The note with it: one reported study; cited from earlier work.

For the compound `CO[C@@H]1[C@H](N(C)C(=O)c2ccccc2)C[C@H]2O[C@]1(C)n1c3ccccc3c3c4c(c5c6ccccc6n2c5c31)C(=O)NC4` [PKC412, N-[(9S,10R,11R,13R)-2,3,10,11,12,13-hexahydro-10-methoxy-9-methyl-1-oxo-9,13-epoxy-1H,9H-diindolo[1,2,3-gh:3′,2′,1′-lm]pyrrolo[3,4-j][1,7]benzodiazonin-11-yl]-N-methylbenzamide], at PDGFRA D842V (1 μM), the “inhibition of PDGFRA D842V mutant” value is “efficiently inhibits”. In addition, the “concentration at which mutant is inhibited” value at PDGFRA D842V (PDGFRA D842V), at PDGFRA ΔDIM842-844 and at KITΔ557-558/T670I [4] was “below 1 μM” in each case. Besides, the “Maximum Tolerated Dose (MTD), total dose” value in data set [1] is listed as roughly 225 mg/day. In data set [2], the “inhibitory activity against imatinib-resistant T674I FIPL1-PDGFRA” value was “full inhibitory activity”. Besides, the KIT autophosphorylation result on KITΔ557-558/T670I [3] (0.5 μM) was “reduced”; at KITΔ557-558/T670I [3] (1 μM) it was “totally inhibit”; at KITInsAY502-503/V654A (0.5 μM, 90 min), “reduced”; on KITInsAY502-503/V654A (ten-fold higher concentration than 0.5 μM), “completely inhibited”.
In the case of `Cc1ccc(NC(=O)c2ccc(CN3CCN(C)CC3)cc2)cc1Nc1nccc(-c2cccnc2)n1` [imatinib], the “patients with primary resistance to imatinib” value with GISTs is 13.7%.
